The values below come from patent US20140336130A1 (PHIGENIX, INC., priority 2011, published 2014).

“Also recorded” adds a separate entry of the source.

What all share (type): cell-based, human
The subject of one experiment is PAX2 protein. The experiment can be described thus: Western blot analysis of PAX2 protein. The settings on record: DU145; Los 5 μM, U0126 25 μM, PD98059 20 μM, AICAR 250 μM; vs untreated control. As for the experimental part:
Briefly, cells were harvested by trypsinization and washed twice with PBS. Lysis buffer was prepared according to the manufacturer's instructions (Sigma), and was then added to the cells. Following a 15 minute incubation period at 4° C. on an orbital shaker, cell lysate were then collected and centrifuged for 10 minutes at 12000×g to pellet cellular debris. The protein-containing supernatant were then collected and quantitated. Next, 25 μg protein extract was loaded onto an 8-16% gradient SDS-PAGE (Novex). Following electrophoresis, proteins were transferred to PVDF membranes, and then blocked with 5% nonfat dry milk in TTBS (0.05% Tween 20 and 100 mM Tris-Cl) for 1 hour. Blots were then probed with rabbit anti-PAX2 primary antibody (Zymed, San Francisco, Calif.) at a 1:2000 dilution. After washing, the membranes were incubated with anti-rabbit antibody conjugated to horseradish peroxidase (HRP) (dilution 1:5000; Sigma), and signal detection was visualized using chemilluminescence reagents (Pierce) on an Alpha Innotech Fluorchem 8900. As a control, blots were stripped and reprobed with mouse anti-β-actin primary antibody (1:5000; Sigma-Aldrich) and HRP— conjugated anti-mouse secondary antibody (1:5000; Sigma-Aldrich) and signal detection was again visualized.
Western blot analysis was performed as described in Example 2. Blots were then probed with primary antibody (anti-PAX2, -phospho-PAX2, -JNK, -phospho-JNK, -ERK1/2, or -phospho-ERK1/2) (Zymed, San Francisco, Calif.) at 1:1000-2000 dilutions. After washing, the membranes were incubated with anti-rabbit antibody conjugated to horseradish peroxidase (HRP) (dilution 1:5000; Sigma), and signal detection was visualized using chemilluminescence reagents (Pierce) on an Alpha Innotech Fluorchem 8900. As a control, blots were stripped and re-probed with mouse anti-β-actin primary antibody (1:5000; Sigma-Aldrich) and HRP— conjugated anti-mouse secondary antibody (1:5000; Sigma-Aldrich), and signal detection was again visualized.\
Western blot analysis was performed as described in Example 2.
Background: Immunoblotting shows a protein as a band on a membrane.

Another experiment relates to phospho-STAT3. The experiment can be described thus: Western blot of phospho-STAT3. The settings on record: DU145; vs untreated control. As for the experimental part: (§1) Western blot analysis was performed as described in Example 2. […] After washing, the membranes were incubated with anti-rabbit antibody conjugated to horseradish peroxidase (HRP) (dilution 1:5000; Sigma), and signal detection was visualized using chemilluminescence reagents (Pierce) on an Alpha Innotech Fluorchem 8900. As a control, blots were stripped and re-probed with mouse anti-β-actin primary antibody (1:5000; Sigma-Aldrich) and HRP— conjugated anti-mouse secondary antibody (1:5000; Sigma-Aldrich), and signal detection was again visualized.\

The next experiment relates to phospho-PAX2. The experiment can be described thus: Western blot of phospho-PAX2. As to conditions: DU145. As for the experimental part:
as §1

The subject of a further experiment is PAX2 expression. The experiment can be described thus: PAX2 expression after AngII or pathway blockers. The settings on record: DU145; for PAX2 expression, fold increase: PD123319 5 μM.

Consider `COc1cccc(-c2cc(=O)c3ccccc3o2)c1N` [PD98059], for which the PAX2 protein levels entry with PAX2 protein was “suppress PAX2 protein levels”. Moreover, the phospho-STAT3 protein levels entry in the experiment on phospho-STAT3 is reported as “reduced phospho-STAT3 protein levels; also recorded: suppress phospho-STAT3 protein levels”. Moreover, the phospho-PAX2 protein levels result in the experiment with phospho-PAX2 is “significant decrease or suppression; also recorded: suppress phospho-PAX2 protein expression levels”. Further, the PAX2 expression result with PAX2 expression (U0126 25 μM, PD98059 20 μM) is given as “decreased PAX2”.

Turning to `Cc1cc(Cn2cnc3c2C[C@@H](C(=O)O)N(C(=O)C(c2ccccc2)c2ccccc2)C3)ccc1N(C)C` [PD123319], the “PAX2 expression, fold increase” value is reported as 7 fold in the experiment with PAX2 expression (48 hours) and 8 fold in the experiment with PAX2 expression (96 hours).

As to `NC(=O)c1ncn([C@@H]2O[C@H](CO)[C@@H](O)[C@H]2O)c1N` [AICAR, 5-Aminoimidazole-4-carboxamide-1-β-4-ribofuranoside], the PAX2 protein levels entry in the experiment with PAX2 protein is on record as “suppression of PAX2 expression; also recorded: suppress PAX2 protein levels”. In addition, the phospho-STAT3 protein levels result in the experiment with phospho-STAT3 was “suppressed; also recorded: suppress phospho-STAT3 protein levels”. In addition, in the experiment on phospho-PAX2, the phospho-PAX2 protein levels entry is recorded as “suppression; also recorded: suppress phospho-PAX2 protein expression levels”.
